Legend:
Akt = Akt phosphorylation (Ser473) in SH-SY5Y-tau-P301S cells, immunoblot; type: cell-based, human; details: dose-dependent and MIF-dependent
Method: After the protein concentration of cell lysates and homogenates had been determined using the DC Protein Assay Kit (Bio-Rad), 20 μg of each sample were dissolved in NuPAGE LDS Sample buffer (including 2% β-mercaptoethanol), boiled at 100°C for 5 min and then separated on NuPAGE Novex 4–12% Bis-Tris midi gels (Invitrogen) using NuPAGE MES SDS Running buffer (Invitrogen). Proteins were then transferred to a 0.2 μm nitrocellulose membrane (Amersham) in 24 mM Tris/192 mM glycine/20% MeOH at 400 mA for 2h using a tank blot system (Bio-Rad). In order to detect any blotting artifacts, the proteins on the membranes were visualized with Ponceau S (Sigma). The membranes were destained with PBS and then blocked with PBS/5% nonfat milk (Oxoid) for 1h at RT. Incubations with primary antibodies (diluted 1:1,000) in PBS-T were carried out overnight at 4°C. Then the membranes were washed three times with PBS-T for 10 min and afterward incubated with fluorescent secondary antibodies (IR Dye 680 or 800: Li-COR Biosciences.) diluted 1:20,000 in PBS-T for 1h at RT. Following three washing steps with PBS-T for 10 min each, the membranes were scanned using an LI-COR Odyssey CLX. Signal intensities were calculated using the Image Studio Version 2.1 software (LI-COR Biosciences). Blots were reused for staining with additional primary antibodies following the same procedure.

oxMIF = biological target: T1, oxMIF (Homo sapiens, UniProt P14174); assay: 15N-HSQC NMR binding to H2O2-treated wild-type MIF (oxMIF)
T1 construct: made in house; host or cells: E. coli BL21-(DE3)-Rosetta-pLysS, pET11a-MIF, then H2O2 treatment
T1 sequence (P14174 2-115 limits assumed): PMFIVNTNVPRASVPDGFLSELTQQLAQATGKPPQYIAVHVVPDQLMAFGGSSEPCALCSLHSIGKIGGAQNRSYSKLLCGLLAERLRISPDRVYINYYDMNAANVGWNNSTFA
Method: The NMR F1-[^13C,^15N]-filtered-[^1H,^1H]-NOESY spectra for structure calculation were recorded on a 700 MHz Bruker Avance Neo spectrometer equipped with cryoprobe, and the ^15N-HSQC were recorded on a 600 MHz Bruker Avance III spectrometer equipped with cryoprobe. The filtered NOESY were recorded for MIF 1.0 mM and saturation of PAV-174, i.e., 1.0 mM of PAV-174. at 310K to reduce the rotational correlation time of the system, with two different mixing times 60 and 100ms; the free induction decay was measured for 106ms (2048 points) and the indirect dimension was set to 20ms (400 points); the signal acquisition was performed with 160 scans and the interscan delay was set to 1.5s. The ^15N-HSQC were measured at 298K with 121ms (2048 points) in the direct dimension and 53 ms (256 points) in the indirect dimension; the signal acquisition was performed through the accumulation of 16 scans and an interscan delay of 1s was applied. The cross-peaks corresponding to ligand-proteins were used to derive ligand-protein distant restraints using the initial rates of the normalized NOE intensity build-up curves.[91] […] The intermolecular distance restraints were kept semiambiguous, i.e., only the ligand signals were assigned, and the MIF- PAV-174 complex was calculated with the NMR^2 software[92] using the CYANA software for tortion angle dynamics structure calculation.

[1] = type: in vivo; details: compared with PAV-174
Method: Figure S5. PAV-17 4 decreases ta u phosphorylation and aggr e gat ion in vi v o. Rel a ted to […]
(A) MTD (Maximum Tol erated Dose) assessment of PAV com pounds in BALB/c mice. BALB/c mice we re dosed through int ra pe rit o ne al (IP ) ro ute at di ff e ren t doses as pe r bo dy we igh t of an ima ls an d mice we re obser ved at di ff e ren t time interval for toxic signs till 48 h, PD (Post dose) . MTD at wa s declared at NOAEL (No-obser ved-adver se-effect level) conc. of PAV […]
(B) PAV-61 7 dose- an d MIF-de pe nd en t ly reduces tau phosphorylati on (A T8) . SH-SY5Y-P301S-control or -MIF-knockdown cel ls we re treated with the indicated concentrations of PAV- […]
cel ls. The di ag ram s show the signals of AT8 normalized to total tau (HT7 ) from six (n =6) in de pe nd en t exper iments. One-wa y ANOVA (Sidak´s post-hoc)
(C) Pharmacokinetic assessment of PAV-61 7 in Sprague Da wley ra ts (S D). Ma le SD ra ts (n=4) we re dosed via three ro utes na me ly intravenous (IV )- 1 mg/kg, (IP )- 5 mg/kg an d per ora l (P O)- 5 mg/kg. Plasma concentration wa s anal yzed at di ff e ren t time intervals. Pharmacokinetic pa ra met e rs we re de t erm ine d usi ng Win No nlin . Cma x (p ea k pl asma concentration) achieved through IV wa s 12 8 ng / mL, IP wa s 36 2. 6 ng / mL an d PO wa s 15 1. 1 ng / mL at Tmax (time of pe ak concentration obser ved) 1 h, 0. 5 h an d 4 h respectively. […]

SMILES	phosphorylation of Akt at Ser473 (Akt)	binding to redMIF and oxMIF (chemical shift perturbations) (oxMIF)	toxicity in mice [1]
CCc1cc(N2CCCC2)cc2[s+]c3cc(N4CCCC4)cc(C)c3nc12.[I-] [PAV-174, 3,7-Di(pyrrolidine-1-yl) 1-ethyl-9-methyl-phenothiazin-5-ium iodide]	increased	bound to both MIF species	
[I-].c1cc2nc3ccc(N4CCCC4)cc3[s+]c2cc1N1CCCC1 [PAV-617, 3,7-Di(pyrrolidine-1-yl)phenothiazine-5-ium iodide]			less toxic in mice

From article PMC12866179, “Oxidized MIF is an Alzheimer’s disease drug target relaying external risk factors to tau pathology” (Cell Reports Medicine, 2025)
